Assay [1] deals with brain phospholipid levels. The assay can be described thus: Brain phospholipid levels in gerbils given UMP diet and/or PUFA by gavage. Type of assay: in vivo, gerbil. The procedure:
Cells were homogenized in 100 volumes of ice-cold deionized water using a tissue degrader (Polytron PT 10-35, Kinematica AG, Switzerland); 1 ml of aliquots were then mixed with 3 ml of chloroform+methanol mixture (2:1 v/v) and vortexed vigorously for 30 seconds. After cooling for 1 h on ice, the mixture was mixed sequentially with 3 ml of chloroform+methanol mixture (2:1 v/v) and 1 ml of ice-cold deionized water. The mixture was vortexed vigorously and allowed to stand overnight in the cold room (18 h). The organic (lower) and aqueous (upper) phases of the mixtures were separated by centrifugation (10 min at 4° C.; 1000 g). An aliquot (2 ml) of the upper phase was used for determination of CDP-Choline (see below), and 0.1-0.4 ml aliquots of the lower phase were dried under vacuum for phospholipid analysis. Residues of 0.1 ml aliquots of the lower phase were assayed for total phospholipid content by measuring phosphorus. Residues of 0.4 ml aliquots of the lower phase were reconstituted in 40 μl methanol and subjected to thin-layer chromatography using silica G plates (Adsorbosil Plus-1®, Alltech), and a system consisting of chloroform/ethanol/triethylamine/water (30:34:30:8) as the mobile phase. Phospholipid standards were used to identify the corresponding bands under UV light after the plates were sprayed with 0.1% diphenylhexatriene in petroleum ether. Bands for individual phospholipid classes (PC, PE, SM, PS and PI) were scraped off the plates and extracted into 1 ml of methanol; dried under vacuum; and assayed for phosphorus content. Total phosphorus was determined by comparison with standard curves by using KH2PO4 run with each assay. To each sample was added 0.5 ml of 4.5% HclO4/27% H2SO4 and tubes were heated at 180° C. for 3 h. After cooling to room temperature, 5 ml of the color reagent (a 10:1 dilution of solutions containing 2.5 mg/ml ammonium molybdate, 8.2 mg/ml sodium acetate and 100 mg/ml ascorbic acid respectively) was added and the tubes were incubated for 2 h, 37° C. Absorbance was measured spectrophotometrically at 820 nm. Phospholipid mass was determined by multiplying the phosphorus content by 25.
Control standard diet (Table 4) consisted of Teklad Global 16% protein rodent diet (Harlan Teklad, Madison, Wis.), which contained 0.1% choline chloride (CC), corresponding to a daily dose of 50 mg/kg/day. UMP was provided as 0.5% UMP·2Na^+ weight/weight, added to the control diet, also prepared by Harlan Teklad, corresponding to 240 mg/kg/day UMP. DHA was administered as 300 mg/kg/day in 200 microliter (mcL)/day 5% Arabic Gum solution, while groups not receiving DHA were administered vehicle (5% Arabic Gum) alone. DHA was provided by Nu-Chek Prep (Elysian, Minn.) and UMP by Numico (Wagenigen, NL).
Gerbils were anesthetized with ketamine and xylazine (80 and 10 mg/kg bwt, i.p.) and sacrificed by immersing the head into liquid nitrogen for 2 min, followed by decapitation. Brains were immediately and quickly (30 seconds) removed using a bone rongeur and stored at −80° C.
Frozen brain hemispheres were weighed and homogenized in 100 volumes of ice-cold deionized water using a tissue degrader (Polytron PT 10-35, Kinematica AG, Switzerland), then analyzed as described in Example 1.
Protein in whole brain homogenate sample was measured for using bicinchoninic acid reagent (Perkin Elmer, Norwalk, Conn., USA). DNA was measured by measuring 460 nm emission of samples on a fluorometer in the presence of bisbenzimidizole, a fluorescent dye known as Hoechst H 33258 (American Hoechst Corporation), which has an excitation maximum at 356 nm and an emission maximum of 458 when bound to DNA.
Male gerbils weighing 80-100 g were divided into 4 groups of 8 gerbils and administered the supplements depicted in Table 1: […]

The test system of assay [2] is SHSY-5Y cells. Briefly: 14C-choline incorporation into phospholipids in SHSY-5Y cells. Format: cell-based, human. As to conditions: 10 μM fatty acid, 18 hr; FIG. 3A. On the procedure:
SHSY-5Y cells were grown to near confluency in DMEM+10% FBS in 35 mm dishes. Cells were incubated for 18 hr in serum-free DMEM+1% FBS containing 30 μM choline+/−10 μM of DHA, arachidonic acid, or palmitic acid. Cells were then labeled, and labeled phospholipids were quantified as described for Example 1.
DHA was dissolved in ethanol to a […] concentration and frozen in 10 microliter aliquots at −80° C. For each experiment, one aliquot was diluted in ethanol to 10 micromolar; the volume giving the desired final solution in incubation medium was mixed with an equal volume of BSA solution (1 gm/ml).
The effect of omega-6 fatty acids on phospholipid synthesis was next examined in SHSY-5Y cells, a human neuroblastoma cell line. In this case, phospholipid synthesis was enhanced by arachidonic acid, an omega-6 fatty acid, but not by DHA or palmitic acid (FIG. 3A).
The effect of arachidonic acid on phospholipid synthesis in SHSY-5Y cells was further characterized as described for omega-3 fatty acids and PC-12 cells in Example 2.

The structures appear in SMILES notation.

For the molecule `CCC=CCC=CCC=CCC=CCC=CCC=CCCC(=O)O` [DHA, 4,7,10,13,16,19-docosahexaenoic acid], the “Brain phospholipid levels” value in assay [1] (3 weeks, Table 6) was “increased”. Further, the “Increase in levels of total phospholipids over control group” value in assay [1] (4 weeks, gerbil brain) is on record as 12%. For the same molecule, in assay [1] (Table 5 part A), the “Total PtdCho” value came out at 185 ± 12 nmol/mg prt, the “Total PtdEtn” value came out at 78 ± 5 nmol/mg prt, the “Total PtdSer” value worked out at 39 ± 3 nmol/mg prt and the “Total Ptdins” value turned out to be 32 ± 2 nmol/mg prt. The Phospholipid synthesis enhanced result in assay [2] is recorded as “not”.
